Source: PMC3914206

Legend:
Experiment in all cases: KiNativ chemical proteomics profiling in HeLa and PC3 cell lysates
Assay type in all cases: binding
[1] = biological target: T1, selected panels of kinases in HeLa and PC3 cell lysates (Homo sapiens, UniProt Q13164); conditions: for ERK5 target occupancy (KiNativ): 10 μM, HeLa and PC3 cell lysates, only ERK5 exceeded this level; for % Inhibiton, Erk5: 10 uM, proteome HEL, peptide DLk[…], labeling site Lys2
T1 construct: endogenous in cells; host or cells: HeLa and PC3 cell lysates

[2] = biological target: T2, selected panels of kinases in HeLa and PC3 cell lysates (Homo sapiens, UniProt Q09013); conditions: 10 uM; proteome HEL; peptide DIkPDNILLDR; labeling site Lys2
T2 construct: endogenous in cells; host or cells: HeLa and PC3 cell lysates

[3] = biological target: T3, selected panels of kinases in HeLa and PC3 cell lysates (Homo sapiens, UniProt P49840); conditions: 10 uM; proteome HEL; peptide DIk[…]; labeling site Lys2
T3 construct: endogenous in cells; host or cells: HeLa and PC3 cell lysates

[4] = biological target: T4, selected panels of kinases in HeLa and PC3 cell lysates (Homo sapiens, UniProt Q9UL54); conditions: 10 uM; TAO2; peptide DVk[…]; proteome PC3; labeling site Lys2
T4 construct: endogenous in cells; host or cells: HeLa and PC3 cell lysates

[5] = biological target: T5, selected panels of kinases in HeLa and PC3 cell lysates (Homo sapiens, UniProt Q9BZL6); conditions: 10 uM, PKD2, peptide DVAVkVIDK, labeling site Lys1
T5 construct: endogenous in cells; host or cells: HeLa and PC3 cell lysates
T5 sequence (Q9BZL6 1-878): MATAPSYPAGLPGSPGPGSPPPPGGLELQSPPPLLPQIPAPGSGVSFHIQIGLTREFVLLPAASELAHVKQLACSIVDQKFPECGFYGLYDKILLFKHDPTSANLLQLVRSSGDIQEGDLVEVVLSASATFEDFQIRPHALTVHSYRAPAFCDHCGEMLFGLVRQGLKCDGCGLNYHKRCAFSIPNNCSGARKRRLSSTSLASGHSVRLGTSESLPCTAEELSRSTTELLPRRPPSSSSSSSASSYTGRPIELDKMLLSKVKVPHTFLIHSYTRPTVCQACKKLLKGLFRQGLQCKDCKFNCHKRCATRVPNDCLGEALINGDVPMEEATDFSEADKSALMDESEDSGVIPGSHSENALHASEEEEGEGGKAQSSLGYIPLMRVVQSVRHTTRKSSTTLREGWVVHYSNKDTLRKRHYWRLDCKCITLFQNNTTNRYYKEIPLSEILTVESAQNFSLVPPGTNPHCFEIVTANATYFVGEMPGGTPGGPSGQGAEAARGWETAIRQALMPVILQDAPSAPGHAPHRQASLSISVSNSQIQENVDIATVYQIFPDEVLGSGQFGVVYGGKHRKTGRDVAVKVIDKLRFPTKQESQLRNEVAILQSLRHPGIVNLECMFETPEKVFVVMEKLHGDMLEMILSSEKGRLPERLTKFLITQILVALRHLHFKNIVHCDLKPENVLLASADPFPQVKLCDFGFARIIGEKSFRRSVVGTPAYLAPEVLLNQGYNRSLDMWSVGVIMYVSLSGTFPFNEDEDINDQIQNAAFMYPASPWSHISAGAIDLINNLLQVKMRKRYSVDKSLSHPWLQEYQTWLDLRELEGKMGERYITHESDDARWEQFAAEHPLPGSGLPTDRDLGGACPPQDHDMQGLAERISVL

[6] = biological target: T6, selected panels of kinases in HeLa and PC3 cell lysates (Homo sapiens, UniProt P42680); conditions: 10 uM; TEC; peptide […]kFPVK; proteome HEL; labeling site Activation Loop
T6 construct: endogenous in cells; host or cells: HeLa and PC3 cell lysates

[7] = biological target: T7, selected panels of kinases in HeLa and PC3 cell lysates (Homo sapiens, UniProt P46734); conditions: 10 uM, peptide DVkPSNVLINK, labeling site Lys2
T7 construct: endogenous in cells; host or cells: HeLa and PC3 cell lysates
T7 sequence (P46734 1-347): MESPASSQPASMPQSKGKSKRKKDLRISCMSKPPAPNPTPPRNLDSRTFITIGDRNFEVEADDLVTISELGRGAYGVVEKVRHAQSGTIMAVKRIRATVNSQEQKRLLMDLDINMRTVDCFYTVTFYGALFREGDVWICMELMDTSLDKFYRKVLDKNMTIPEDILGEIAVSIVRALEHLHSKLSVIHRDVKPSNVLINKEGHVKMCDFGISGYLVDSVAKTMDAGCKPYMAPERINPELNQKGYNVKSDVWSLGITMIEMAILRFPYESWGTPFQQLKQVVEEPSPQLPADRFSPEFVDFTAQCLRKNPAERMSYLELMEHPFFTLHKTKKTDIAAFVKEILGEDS

T1 sequence (Q13164 whole entry): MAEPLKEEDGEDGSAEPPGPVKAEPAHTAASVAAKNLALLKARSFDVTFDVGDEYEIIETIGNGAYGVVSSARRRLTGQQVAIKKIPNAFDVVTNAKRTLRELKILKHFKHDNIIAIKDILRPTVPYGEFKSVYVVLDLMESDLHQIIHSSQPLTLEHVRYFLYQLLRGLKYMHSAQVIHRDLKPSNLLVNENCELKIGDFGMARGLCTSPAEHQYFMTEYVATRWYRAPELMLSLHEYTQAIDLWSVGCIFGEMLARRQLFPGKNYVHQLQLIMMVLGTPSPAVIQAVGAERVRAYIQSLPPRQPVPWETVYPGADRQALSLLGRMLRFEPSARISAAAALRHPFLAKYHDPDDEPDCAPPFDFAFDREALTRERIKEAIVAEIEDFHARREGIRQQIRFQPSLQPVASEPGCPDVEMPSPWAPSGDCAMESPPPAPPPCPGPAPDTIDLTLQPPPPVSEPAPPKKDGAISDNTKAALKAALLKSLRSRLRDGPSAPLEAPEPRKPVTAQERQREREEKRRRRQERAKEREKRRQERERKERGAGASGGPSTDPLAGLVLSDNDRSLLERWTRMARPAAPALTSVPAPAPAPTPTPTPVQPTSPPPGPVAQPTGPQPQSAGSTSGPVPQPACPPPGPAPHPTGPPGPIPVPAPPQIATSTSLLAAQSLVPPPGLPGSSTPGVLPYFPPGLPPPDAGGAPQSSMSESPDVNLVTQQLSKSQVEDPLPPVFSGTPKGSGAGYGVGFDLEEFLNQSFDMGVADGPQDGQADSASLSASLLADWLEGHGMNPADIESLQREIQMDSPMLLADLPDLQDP
T6 sequence (P42680 whole entry): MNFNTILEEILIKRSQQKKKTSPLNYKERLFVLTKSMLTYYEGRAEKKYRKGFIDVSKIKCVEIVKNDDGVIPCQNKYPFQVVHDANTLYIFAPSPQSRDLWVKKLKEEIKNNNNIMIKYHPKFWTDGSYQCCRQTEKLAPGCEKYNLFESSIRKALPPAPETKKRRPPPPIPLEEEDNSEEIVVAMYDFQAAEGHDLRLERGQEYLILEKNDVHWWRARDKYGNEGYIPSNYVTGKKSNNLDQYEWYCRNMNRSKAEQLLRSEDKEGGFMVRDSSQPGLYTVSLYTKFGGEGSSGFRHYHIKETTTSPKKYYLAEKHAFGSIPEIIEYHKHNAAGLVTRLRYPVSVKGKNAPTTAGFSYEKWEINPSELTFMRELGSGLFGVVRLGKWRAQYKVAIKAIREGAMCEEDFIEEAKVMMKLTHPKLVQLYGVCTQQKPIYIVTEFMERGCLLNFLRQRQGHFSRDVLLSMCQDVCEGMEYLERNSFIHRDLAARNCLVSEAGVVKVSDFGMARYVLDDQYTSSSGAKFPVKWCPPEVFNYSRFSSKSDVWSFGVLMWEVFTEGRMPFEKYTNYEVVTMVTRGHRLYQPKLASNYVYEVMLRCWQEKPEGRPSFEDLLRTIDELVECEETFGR
T4 sequence (Q9UL54 whole entry): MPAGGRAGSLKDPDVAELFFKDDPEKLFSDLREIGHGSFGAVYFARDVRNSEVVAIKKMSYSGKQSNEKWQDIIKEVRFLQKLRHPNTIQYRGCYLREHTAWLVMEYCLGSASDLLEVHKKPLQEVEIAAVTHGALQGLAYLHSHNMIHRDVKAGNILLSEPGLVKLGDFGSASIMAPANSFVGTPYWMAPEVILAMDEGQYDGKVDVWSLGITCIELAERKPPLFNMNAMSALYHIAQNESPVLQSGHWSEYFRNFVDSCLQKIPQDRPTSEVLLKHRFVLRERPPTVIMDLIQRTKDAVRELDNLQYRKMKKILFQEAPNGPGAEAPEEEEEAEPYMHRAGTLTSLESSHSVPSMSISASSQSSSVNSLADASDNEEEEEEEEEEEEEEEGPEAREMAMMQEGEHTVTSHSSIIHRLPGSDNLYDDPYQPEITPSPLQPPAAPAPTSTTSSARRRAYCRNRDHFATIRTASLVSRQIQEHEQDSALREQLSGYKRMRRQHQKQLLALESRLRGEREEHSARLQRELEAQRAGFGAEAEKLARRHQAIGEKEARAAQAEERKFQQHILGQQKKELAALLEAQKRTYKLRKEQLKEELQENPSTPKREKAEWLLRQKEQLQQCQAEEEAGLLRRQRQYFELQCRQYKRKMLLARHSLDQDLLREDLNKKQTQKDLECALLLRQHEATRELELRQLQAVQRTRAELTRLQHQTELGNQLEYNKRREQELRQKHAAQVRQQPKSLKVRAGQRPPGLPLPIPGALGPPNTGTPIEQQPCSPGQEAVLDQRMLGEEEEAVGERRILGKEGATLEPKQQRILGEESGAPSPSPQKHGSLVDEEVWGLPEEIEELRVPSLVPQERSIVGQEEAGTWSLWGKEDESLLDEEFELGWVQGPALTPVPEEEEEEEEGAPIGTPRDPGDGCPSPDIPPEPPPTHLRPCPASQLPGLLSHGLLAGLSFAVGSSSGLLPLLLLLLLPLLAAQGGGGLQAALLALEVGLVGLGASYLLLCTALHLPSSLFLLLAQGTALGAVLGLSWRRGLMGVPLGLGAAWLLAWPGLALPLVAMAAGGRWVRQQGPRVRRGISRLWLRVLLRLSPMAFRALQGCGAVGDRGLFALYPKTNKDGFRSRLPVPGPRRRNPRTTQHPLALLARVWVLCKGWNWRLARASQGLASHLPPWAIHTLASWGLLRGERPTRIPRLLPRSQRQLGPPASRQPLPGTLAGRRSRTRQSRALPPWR
T3 sequence (P49840 whole entry): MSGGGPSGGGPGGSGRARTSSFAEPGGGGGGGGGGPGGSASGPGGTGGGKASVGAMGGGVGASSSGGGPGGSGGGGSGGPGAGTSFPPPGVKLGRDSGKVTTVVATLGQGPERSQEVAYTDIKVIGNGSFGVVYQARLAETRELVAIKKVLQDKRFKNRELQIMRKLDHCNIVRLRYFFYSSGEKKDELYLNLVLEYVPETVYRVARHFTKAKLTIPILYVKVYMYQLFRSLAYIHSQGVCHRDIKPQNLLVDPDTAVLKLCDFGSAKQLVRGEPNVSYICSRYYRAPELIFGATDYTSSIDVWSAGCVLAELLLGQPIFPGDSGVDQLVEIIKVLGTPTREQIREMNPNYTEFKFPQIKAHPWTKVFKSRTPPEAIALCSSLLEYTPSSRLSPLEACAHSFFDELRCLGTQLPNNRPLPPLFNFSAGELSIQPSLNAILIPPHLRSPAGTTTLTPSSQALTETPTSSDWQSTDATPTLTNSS
T2 sequence (Q09013 whole entry): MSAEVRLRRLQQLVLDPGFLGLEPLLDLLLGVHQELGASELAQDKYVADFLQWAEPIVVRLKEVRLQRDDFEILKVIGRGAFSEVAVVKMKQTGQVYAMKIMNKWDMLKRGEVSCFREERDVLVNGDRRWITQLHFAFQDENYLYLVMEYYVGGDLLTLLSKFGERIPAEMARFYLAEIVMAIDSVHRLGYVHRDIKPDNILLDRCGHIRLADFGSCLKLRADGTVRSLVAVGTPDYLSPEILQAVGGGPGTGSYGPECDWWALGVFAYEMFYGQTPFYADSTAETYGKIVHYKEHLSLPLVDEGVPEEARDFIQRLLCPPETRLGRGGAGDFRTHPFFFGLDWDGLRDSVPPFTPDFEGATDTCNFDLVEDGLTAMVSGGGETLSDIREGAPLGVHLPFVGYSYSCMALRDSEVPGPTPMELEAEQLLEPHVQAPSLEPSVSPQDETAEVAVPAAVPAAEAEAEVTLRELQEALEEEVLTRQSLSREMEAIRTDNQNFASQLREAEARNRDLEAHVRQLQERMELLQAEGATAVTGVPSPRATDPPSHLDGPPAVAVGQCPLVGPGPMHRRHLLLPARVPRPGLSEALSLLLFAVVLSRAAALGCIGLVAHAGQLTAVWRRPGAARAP

SMILES: COc1cc(C(=O)N2CCC(N3CCN(C)CC3)CC2)ccc1Nc1ncc2c(n1)N(C1CCCC1)c1ccccc1C(=O)N2C [Compound 25, 11-cyclopentyl-2-((2-methoxy-4-(4-(4-methylpiperazin-1-yl)piperidine-1-carbonyl)phenyl)amino)-5-methyl-5H-benzo[e]pyrimido[5,4-b][1,4]diazepin-6(11H)-one]
- ERK5 target occupancy (KiNativ) [1]: higher than 90%
- % Inhibiton, Erk5 [1]: >95%
- % Inhibiton, DMPK1 [2]: 10.0%
- % Inhibiton, GSK3A [3]: 4.1%
- % Inhibition TAO2 [4]: 0.261%
- % Inhibition PKD2 ([5]; proteome HEL): -7.1%
- % Inhibition PKD2 ([5]; proteome PC3): -2.6%
- % Inhibition TEC [6]: 8.9%
- % Inhibiton, MAP2K3 ([7]; proteome HEL): 11.8%
- % Inhibiton, MAP2K3 ([7]; proteome PC3): -7.0%

SMILES: CCOc1cc(C(=O)N2CCC(N3CCN(C)CC3)CC2)ccc1Nc1ncc2c(n1)N(C1CCCC1)c1ccccc1C(=O)N2C [Compound 26]
- ERK5 target occupancy (KiNativ) [1]: higher than 90%
- % Inhibiton, Erk5 [1]: 94.3%
- % Inhibiton, DMPK1 [2]: 29.4%
- % Inhibiton, GSK3A [3]: 10.2%
- % Inhibition TAO2 [4]: 7.2%
- % Inhibition PKD2 ([5]; proteome HEL): -14.3%
- % Inhibition PKD2 ([5]; proteome PC3): 26.9%
- % Inhibition TEC [6]: 5.8%
- % Inhibiton, MAP2K3 ([7]; proteome HEL): 10.9%
- % Inhibiton, MAP2K3 ([7]; proteome PC3): 0.8%
